This passage reports IC50 and inhibition results from patent EP1137645B1, “ALPHA-METHYLBENZYL-CONTAINING THIOUREA INHIBITORS OF HERPES VIRUSES CONTAINING A […] GROUP” (Wyeth, priority 1998, dated 2000).

In brackets after ≈: the same amount, converted by molar mass. Read-outs that look alike come from different tables or passages of the source.

In experiment [1] the test system is HCMV recombinant mutant virus whose genome contains the prokaryotic beta-glucuronidase gene. Briefly: microbe, parasite or virus in culture. In kind it is cell-based, human cytomegalovirus. As to conditions: Human betaherpesvirus 5, Fibroblast, read-out: IC50 ug/ml HCMV, HCMV, human foreskin fibroblasts. An excerpt:
Microtiter plate assay. Ninety-six well plate cultures of human foreskin fibroblasts are infected in the presence of inhibitor compound with a HCMV recombinant mutant virus whose genome contains the prokaryotic beta-glucuronidase gene (Jefferson, R. A., S. M. Burgess, and D. Hirsh. 1986. Beta-glucuronidase from Escherichia coli as a gene fusion marker. Proc. Natl. Acad. Sci. USA 83:8447-8451) whose expression is controlled by a viral promoter. An example of such a virus is RV145 (Jones, T. R., V. P. Muzithras, and Y. Gluzman. 1991. Replacement mutagenesis of the human cytomegalovirus genome: US10 and US11 gene products are nonessential. J. Virol. 65:5860-5872). Since it is under the control of a viral promoter, beta-glucuronidase expression is an indirect indicator of growth and replication of HCMV in this assay. At 96 hours post-infection, the infected cell lysates are prepared (using 50mM sodium phosphate [pH7.0] containing 0.1% Triton X-100 and 0.1% sarkosyl) and assayed for beta-glucuronidase activity using a substrate for the enzyme which when cleaved yields either a product which can be measured colorimetrically in a spectrophotometer or fluorescently in a microfluorimeter. Examples of such substrates are p-nitrophenyl-beta-D-glucuronide and methylumbelliferylglucuronide, respectively. The presence of an antiviral compound is indicated by the reduced expression of the HCMV genome resident beta-glucuronidase gene, compared to the absence of inhibitor. […] Data from this assay generated using varying amounts of inhibitor compound is also used to estimate the IC50 of an inhibitor compound.

For another experiment, the system named is VZV strain Ellen. Briefly: VZV antiviral (ELISA) assay. In kind it is cell-based. As to conditions: Human alphaherpesvirus 3, HFF; for inhibition at 10 µg/mL: read-out: % inhibition 10 ug/ml VZV. On the procedure:
For the generation of stock VZV to be used in the assay, VZV strain Ellen (ATCC #VR-1367) is used to infect human foreskin fibroblast (HFF) cells at low multiplicity (less than 0.1) and incubated overnight at 37°C in 5% CO2. After the overnight incubation, the mixture of uninfected and VZV-infected HFF infected cells are then harvested and added to each well of 96-well plates (3.5x10^4 cells in 100 µl DMEM supplemented with 2% FBS) which contain test compound or the reference standard drug control (in 100µl DMEM supplemented with 2% FBS per well). These cells are incubated for three days at 37°C in 5% CO2, then fixed for ELISA assay. The primary antibody is murine anti-VZV glycoprotein II monoclonal antibody (Applied Biosystems, Inc. #13-145-100) and the secondary antibody is goat anti-mouse IgG linked to β-galactosidase. Thus the extent of viral replication is determined by assessing β-galactosidase activity by quantifying the generation of the 4-methyl umbelliferone fluorescent cleavage product after addition of the methyl umbelliferyl-β-D-galactoside (Sigma #M1633) substrate on a microfluorimeter (365nm for excitation and 450nm for emission). Antiviral activity (IC50) of the test compound is determined by comparing the flourescence obtained in absence of compound to that obtained in the presence of compound.
Background: ELISA stands for enzyme-linked immunosorbent assay.

Another experiment relates to HSV- I. Briefly: HSV antiviral (ELISA) assay. As to conditions: read-out: IC50 (ug/ml) HSV. Type of experiment: cell-based. The method, then: Vero cells (ATCC #CCL-81) are plated on 96-well tissue culture plates at 3.5x10^4 cells per 100µl tissue culture DMEM (Dulbecco's modified Eagle media) supplemented with 2% fetal bovine serum (FBS) in each well. After overnight incubation @ 37°C (in 5% CO2) and 30 minutes prior to infection with HSV- I (multiplicity of infection equal to 0.006), cells are either untreated, or treated with test compound (multiple concentrations) or reference standard drug control. After approximately 24 hours post-infection incubation @ 37°C (in 5% CO2), cells are fixed for ELISA assay. The primary antibody is murine anti-HSV glycoprotein D monoclonal primary antibody and the secondary antibody is goat anti-mouse IgG linked to β-galactosidase. Thus the extent of viral replication is determined by assessing β-galactosidase activity by quantifying the generation of the 4-methyl umbelliferone fluorescent cleavage product after addition of the methyl umbelliferyl-β-D-galactoside (Sigma #M1633) substrate on a microfluorimeter (365nm for excitation and 450nm for emission). Antiviral activity (IC50) of the test compound is determined by comparing the flourescence obtained in absence of compound to that obtained in the presence of compound.

Setting [2] is: read-out: IC50 (ug/ml) VZV, VZV strain Ellen, HFF cells, ELISA.

`COc1cc(OC)c(NC(=S)Nc2ccc(NC(=O)c3ccccc3C)cc2)cc1Cl` [Example 114, N-{4-[3-(5-Chloro-2,4-dimethoxy-phenyl)-thioureido]-phenyl}-2-methyl-benzamide]: the IC50 in experiment [1] is 5 µg/mL (≈ 11 µM); with VZV strain Ellen (read-out: IC50 (ug/ml) VZV), > 10 µg/mL; with HSV- I (HSV- I, Vero cells, ELISA), 0.3 µg/mL (≈ 0.658 µM). Further, the inhibition at 10 µg/mL in the experiment with VZV strain Ellen is 17%.

For `COc1cc(OC)c(NC(=S)Nc2ccc(NC(=O)c3ccccc3OC(C)=O)cc2)cc1Cl` [Example 115, Acetic acid 2-{4-[3-(5-chloro-2,4-dimethoxy-phenyl)-thioureido]-phenyl-carbamoyl}-phenyl ester], the IC50 in experiment [1] worked out at 8 µg/mL (≈ 16 µM); in the experiment with VZV strain Ellen (read-out: IC50 (ug/ml) VZV), 4 µg/mL (≈ 8 µM); in the experiment on HSV- I (HSV- I, Vero cells, ELISA), 4 µg/mL (≈ 8 µM). Besides, the inhibition at 10 µg/mL with VZV strain Ellen worked out at 98%.

As for `COc1cc(OC)c(NC(=S)Nc2ccc(NC(=O)c3ccc(F)cc3)cc2)cc1Cl` [Example 116, N-{4-[3-(5-Chloro-2,4-dimethoxy-phenyl)-thioureido]-phenyl}-4-fluoro-benzamide], the IC50 was 3 µg/mL (≈ 6.52 µM) in experiment [1], > 10 µg/mL in the experiment with VZV strain Ellen (read-out: IC50 (ug/ml) VZV) and 2 µg/mL (≈ 4.35 µM) in the experiment with HSV- I (Vero). Besides, the inhibition at 10 µg/mL in the experiment on VZV strain Ellen is 0%.

Take `COc1cc(OC)c(NC(=S)Nc2ccc(NC(=O)c3cccc(F)c3)cc2)cc1Cl` [Example 117, N-{4-[3-(5-Chloro-2,4-dimethoxy-phenyl)-thioureido]-phenyl}-3-fluoro-benzamide]: the IC50 in experiment [1] was 3 µg/mL (≈ 6.52 µM); in the experiment with VZV strain Ellen (read-out: IC50 (ug/ml) VZV), > 10 µg/mL; in the experiment on HSV- I (HSV- I, Vero cells, ELISA) it was 0.3 µg/mL (≈ 0.652 µM). In addition, the inhibition at 10 µg/mL in the experiment on VZV strain Ellen amounted to 15%.

In the case of `COc1cc(OC)c(NC(=S)Nc2ccc(NC(=O)c3ccccc3F)cc2)cc1Cl` [Example 118, N-{4-[3-(5-Chloro-2,4-dimethoxy-phenyl)-thioureido]-phenyl}-2-fluoro-benzamide], the values for the IC50 (in experiment [1]; in the experiment on VZV strain Ellen (setting [2]); in the experiment with HSV- I (Vero)) were 3 µg/mL (≈ 6.52 µM), > 10 µg/mL and 0.15 µg/mL (≈ 0.326 µM), respectively.

`COc1cc(OC)c(NC(=S)Nc2ccc(NC(=O)c3ccccc3OC)cc2)cc1Cl` [Example 119, N-{4-[3-(5-Chloro-2,4-dimethoxy-phenyl)-thioureido]-phenyl}-2-methoxy-benzamide]: the IC50 in experiment [1] was > 10 µg/mL; in the experiment on VZV strain Ellen (read-out: IC50 (ug/ml) VZV), > 10 µg/mL; in the experiment with HSV- I (HSV- I, Vero cells, ELISA), 0.5 µg/mL (≈ 1.06 µM). Further, the inhibition at 10 µg/mL in the experiment with VZV strain Ellen was found to be 1%.

As for `COc1cccc(C(=O)Nc2ccc(NC(=S)Nc3cc(Cl)c(OC)cc3OC)cc2)c1` [Example 120, N-{4-[3-(5-Chloro-2,4-dimethoxy-phenyl)-thioureido]-phenyl}-3-methoxy-benzamide], the IC50 is 5 µg/mL (≈ 10.6 µM) in experiment [1]; > 10 µg/mL in the experiment with VZV strain Ellen (read-out: IC50 (ug/ml) VZV); 0.8 µg/mL (≈ 1.7 µM) in the experiment with HSV- I (HSV- I, Vero cells, ELISA). In the experiment with VZV strain Ellen, the inhibition at 10 µg/mL was determined as 25%.

As to `COc1ccc(C(=O)Nc2ccc(NC(=S)Nc3cc(Cl)c(OC)cc3OC)cc2)cc1` [Example 121, N-{4-[3-(5-Chloro-2,4-dimethoxy-phenyl)-thioureido]-phenyl}-4-methoxy-benzamide], the IC50 in experiment [1] is 6 µg/mL (≈ 12.7 µM); with VZV strain Ellen (read-out: IC50 (ug/ml) VZV) it was > 10 µg/mL; with HSV- I (HSV- I, Vero cells, ELISA), 0.3 µg/mL (≈ 0.636 µM). Further, in the experiment on VZV strain Ellen, the inhibition at 10 µg/mL was 0%.

As to `COc1cc(OC)c(NC(=S)Nc2ccc(NC(=O)c3ccccc3)cc2)cc1Cl` [Example 122, N-{4-[3-(5-Chloro-2,4-dimethoxy-phenyl)-thioureido]-phenyl}-benzamide], the IC50 in experiment [1] was 4 µg/mL (≈ 9.05 µM); with VZV strain Ellen (read-out: IC50 (ug/ml) VZV), > 10 µg/mL; with HSV- I (HSV- I, Vero cells, ELISA) it was 0.3 µg/mL (≈ 0.679 µM). Further, the inhibition at 10 µg/mL with VZV strain Ellen came to 13%.

With `COc1c(Cl)cc(NC(=S)Nc2ccc(NC(=O)c3ccc(F)cc3)cc2)cc1Cl` [Example 133, N-{4-[3-(3,5-Dichloro-4-methoxy-phenyl)-thioureido]-phenyl}-4-fluoro-benzamide], the IC50 in experiment [1] was 0.6 µg/mL (≈ 1.29 µM); in the experiment with VZV strain Ellen (read-out: IC50 (ug/ml) VZV), > 10 µg/mL; in the experiment on HSV- I (HSV- I, Vero cells, ELISA) it was 7 µg/mL (≈ 15.1 µM). Also, in the experiment with VZV strain Ellen, the inhibition at 10 µg/mL turned out to be 36%.

For the molecule `COc1cc(OC)c(NC(=S)Nc2ccc(NC(=O)c3cccc(NC(C)=O)c3)cc2)cc1Cl` [Example 134, 3-Acetylamino-N-{4-[3-(5-chloro-2,4-dimethoxy-phenyl)-thioureido]-phenyl}-benzamide], the IC50 in experiment [1] is 4 µg/mL (≈ 8.02 µM); in the experiment with VZV strain Ellen (read-out: IC50 (ug/ml) VZV), > 10 µg/mL; in the experiment on HSV- I (HSV- I, Vero cells, ELISA), > 10 µg/mL. In addition, the inhibition at 10 µg/mL in the experiment on VZV strain Ellen came out at 50%.

Take `COc1cc(OC)c(NC(=S)Nc2ccc(NC(=O)c3cccc([N+](=O)[O-])c3)cc2)cc1Cl` [Example 135, N-{4-[3-(5-Chloro-2,4-dimethoxy-phenyl)-thioureido]-phenyl}-3-nitro-benzamide]: the IC50 in experiment [1] was 5 µg/mL (≈ 10.3 µM); in the experiment on VZV strain Ellen (read-out: IC50 (ug/ml) VZV), > 10 µg/mL; in the experiment on HSV- I (HSV- I, Vero cells, ELISA), 1.5 µg/mL (≈ 3.08 µM). The inhibition at 10 µg/mL in the experiment on VZV strain Ellen amounted to 0%.

In the case of `COc1cc(OC)c(NC(=S)Nc2ccc(NC(=O)c3cccc(N(C)C)c3)cc2)cc1Cl` [Example 136, N-{4-[3-(5-Chloro-2,4-dimethoxy-phenyl)-thioureido]-phenyl}-3-dimethylamino-benzamide], the IC50 in experiment [1] is 10 µg/mL (≈ 20.6 µM); in the experiment with VZV strain Ellen (read-out: IC50 (ug/ml) VZV), > 10 µg/mL; with HSV- I (HSV- I, Vero cells, ELISA), 1 µg/mL (≈ 2.06 µM). The inhibition at 10 µg/mL in the experiment with VZV strain Ellen came to 40%.

In the case of `COc1cc(OC)c(NC(=S)Nc2ccc(NC(=O)c3cccc(NS(C)(=O)=O)c3)cc2)cc1Cl` [Example 137, N-{4-[3-(5-Chloro-2,4-dimethoxy-phenyl)-thioureido]-phenyl}-3-methane-sulfony-amino-benzamide], the IC50 is 10 µg/mL (≈ 18.7 µM) in experiment [1], > 15 µg/mL in the experiment with VZV strain Ellen (setting [2]) and 10 µg/mL (≈ 18.7 µM) in the experiment on HSV- I (Vero). In addition, the inhibition at 10 µg/mL in the experiment on VZV strain Ellen came out at 72%.

For `COc1cc(OC)c(NC(=S)Nc2ccc(NC(=O)c3ccccc3C(F)(F)F)cc2)cc1Cl` [Example 138, N-{4-[3-(5-Chloro-2,4-dimethoxy-phenyl)-thioureido]-phenyl}-2-trifluoro-methyl-benzamide], the IC50 in experiment [1] is 8 µg/mL (≈ 15.7 µM); in the experiment with VZV strain Ellen (read-out: IC50 (ug/ml) VZV), > 10 µg/mL; in the experiment with HSV- I (HSV- I, Vero cells, ELISA), 1 µg/mL (≈ 1.96 µM). Moreover, the inhibition at 10 µg/mL in the experiment with VZV strain Ellen worked out at 57%.

Turning to `O=C(Nc1ccc(NC(=S)NC(c2ccccc2)c2ccc(F)cc2)cc1)c1ccccc1F` (stereo not shown) [Example 772, 2-Fluoro-N-(4-{3-[(4-fluoro-phenyl)-phenyl-methyl]-thioureido}-phenyl)-benzamide], the IC50 in experiment [1] is 0.35 µg/mL (≈ 0.739 µM); in the experiment on HSV- I (Vero), > 10 µg/mL.

Regarding `O=C(Nc1ccc(NC(=S)Nc2cccc(Cl)c2Cl)cc1)c1ccccc1F` [Example 927, N-{4-[3-(2,3-Dichloro-phenyl)-thioureido]-phenyl}-2-fluoro-benzamide], the IC50 was 2 µg/mL (≈ 4.6 µM) in experiment [1] and 5 µg/mL (≈ 11.5 µM) in the experiment on HSV- I (Vero).

Take `O=C(Nc1ccc(NC(=S)Nc2cccc(Cl)c2)cc1)c1ccccc1F` [Example 944, N-{4-[3-(3-Chloro-phenyl)-thioureido]-phenyl}-2-fluoro-benzamide]: the IC50 was 3 µg/mL (≈ 7.5 µM) in experiment [1] and > 10 µg/mL in the experiment on HSV- I (Vero).

As to `O=C(Nc1ccc(NC(=S)Nc2ccc(Cl)cc2)cc1)c1ccccc1F` [Example 946, N-{4-[3-(4-Chloro-phenyl)-thioureido]-phenyl}-2-fluoro-benzamide], the IC50 (in experiment [1]; with HSV- I (Vero)) was > 10 µg/mL throughout.
